1 compound from patent US20110092517A1, “Use of PPAR Delta Ligands for the Treatment or Prevention of Inflammation or Energy Metabolism/Production Related Diseases” (Cerenis Therapeutics S.A. & Nippon Chemiphar Co., Ltd., priority 2009, published 2011) can be followed below.

This assay deals with T1, rat PPARγ (Rattus norvegicus, UniProt O88275).
T1 construct: expressed in transfected cells; host or cells: CV-1
T1 sequence (O88275 238-503 limits assumed): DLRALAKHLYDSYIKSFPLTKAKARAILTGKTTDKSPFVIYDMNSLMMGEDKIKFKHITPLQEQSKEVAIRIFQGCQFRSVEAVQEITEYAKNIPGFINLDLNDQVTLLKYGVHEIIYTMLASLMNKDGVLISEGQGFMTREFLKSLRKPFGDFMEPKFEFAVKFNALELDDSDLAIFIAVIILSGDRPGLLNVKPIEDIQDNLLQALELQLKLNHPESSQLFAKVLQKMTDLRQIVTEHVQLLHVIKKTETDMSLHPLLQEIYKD
The assay can be described thus: GAL4-PPAR chimera transactivation assay in CV-1 cells at 10% or 0.1% serum (Example 4). The conditions noted are these: read-out: GAL4-chimera (rat) EC50 (μM) hPPARγ. It counts as cell-based.

Like-named read-outs stand apart in the source and are kept apart here.

The EC50 is the concentration at which the effect is half-maximal. For the compound `Cc1cc(C(=O)CCc2sc(-c3ccc(C(F)(F)F)cc3)nc2C(C)C)ccc1OCC(=O)O` [compound I.1, 4-[3-[4-Isopropyl-2-[4-(trifluoromethyl)phenyl]-5-thiazolyl]propionyl]-2-methylphenoxyacetic acid], the EC50 (0.1% serum) was above 10 µM and the EC50 (10% serum) was above 10 µM.
